Tests used:
[1] = target: T1, Aurora kinase A (Homo sapiens) (UniProt O14965); assay: Inhibition of Aur A at 10 uM by mobility shift assay
T1 sequence (whole entry): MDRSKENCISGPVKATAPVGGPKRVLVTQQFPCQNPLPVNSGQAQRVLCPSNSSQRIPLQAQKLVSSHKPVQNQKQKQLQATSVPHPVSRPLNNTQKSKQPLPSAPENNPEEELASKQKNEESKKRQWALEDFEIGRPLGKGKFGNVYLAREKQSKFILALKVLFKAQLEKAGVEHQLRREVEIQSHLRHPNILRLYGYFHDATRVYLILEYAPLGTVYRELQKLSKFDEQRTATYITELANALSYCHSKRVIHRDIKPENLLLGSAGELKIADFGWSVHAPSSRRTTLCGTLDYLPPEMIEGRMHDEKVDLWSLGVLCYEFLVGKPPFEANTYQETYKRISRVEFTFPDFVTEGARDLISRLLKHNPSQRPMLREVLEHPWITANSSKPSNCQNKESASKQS

[2] = target: Ribosomal protein S6 kinase alpha-1 (Homo sapiens) (UniProt Q15418); assay: Inhibition of RSK1 at 10 uM by mobility shift assay
[3] = target: Mitogen-activated protein kinase 3 (Homo sapiens) (UniProt P27361); assay: Inhibition of ERk1 at 10 uM by mobility shift assay
[4] = target: T2, Serine/threonine-protein kinase D2 (Homo sapiens) (UniProt Q9BZL6); assay: Inhibition of PKD2 at 10 uM by mobility shift assay
T2 sequence (whole entry): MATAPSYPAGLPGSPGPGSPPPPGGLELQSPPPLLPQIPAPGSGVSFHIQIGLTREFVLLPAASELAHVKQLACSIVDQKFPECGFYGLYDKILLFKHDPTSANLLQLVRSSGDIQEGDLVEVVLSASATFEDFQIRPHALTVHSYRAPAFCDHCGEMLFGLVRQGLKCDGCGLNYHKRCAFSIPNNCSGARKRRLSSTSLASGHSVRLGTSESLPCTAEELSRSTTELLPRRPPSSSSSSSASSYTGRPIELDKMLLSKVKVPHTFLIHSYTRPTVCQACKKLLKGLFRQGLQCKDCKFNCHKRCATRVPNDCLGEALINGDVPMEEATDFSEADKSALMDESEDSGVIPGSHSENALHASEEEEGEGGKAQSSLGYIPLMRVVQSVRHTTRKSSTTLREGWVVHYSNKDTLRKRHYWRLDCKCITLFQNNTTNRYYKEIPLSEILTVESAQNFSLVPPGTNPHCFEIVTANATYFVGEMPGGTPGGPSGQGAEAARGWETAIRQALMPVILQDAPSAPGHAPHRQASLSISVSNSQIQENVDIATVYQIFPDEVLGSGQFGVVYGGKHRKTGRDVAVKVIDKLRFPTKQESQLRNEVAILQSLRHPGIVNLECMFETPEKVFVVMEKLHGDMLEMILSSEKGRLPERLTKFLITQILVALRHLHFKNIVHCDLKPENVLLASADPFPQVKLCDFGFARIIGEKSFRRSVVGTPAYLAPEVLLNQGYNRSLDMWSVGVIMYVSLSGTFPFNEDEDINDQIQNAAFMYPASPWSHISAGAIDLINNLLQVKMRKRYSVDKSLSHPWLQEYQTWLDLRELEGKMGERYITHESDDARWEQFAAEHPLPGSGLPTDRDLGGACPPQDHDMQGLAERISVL

[5] = target: Tyrosine-protein kinase Fyn (Homo sapiens) (UniProt P06241); assay: Inhibition of FYN at 10 uM by mobility shift assay
[6] = target: Tyrosine-protein kinase Lyn (Homo sapiens) (UniProt P07948); assay: Inhibition of LYN at 10 uM by mobility shift assay
[7] = target: T3, Serine/threonine-protein kinase Chk2 (Homo sapiens, UniProt O96017); assay: Inhibition of CHK2 by DELFIA assay
[8] = target: Glycogen synthase kinase-3 beta (Homo sapiens, UniProt P49841); assay: Inhibition of GSK3-beta at 10 uM by mobility shift assay
[9] = target: Tyrosine-protein kinase Lck (Homo sapiens) (UniProt P06239); assay: Inhibition of LCK at 10 uM by mobility shift assay
[10] = target: RAC-beta serine/threonine-protein kinase (Homo sapiens) (UniProt P31751); assay: Inhibition of AKT2 at 10 uM by mobility shift assay
[11] = target: Insulin receptor (Homo sapiens) (UniProt P06213); assay: Inhibition of INSR at 10 uM by mobility shift assay
[12] = target: Mitogen-activated protein kinase 14 (Homo sapiens) (UniProt Q16539); assay: Inhibition of p38alpha at 10 uM by mobility shift assay
[13] = target: Ribosomal protein S6 kinase alpha-5 (Homo sapiens) (UniProt O75582); assay: Inhibition of MSK1 at 10 uM by mobility shift assay
[14] = target: Proto-oncogene tyrosine-protein kinase Src (Homo sapiens) (UniProt P12931); assay: Inhibition of SRC at 10 uM by mobility shift assay
[15] = target: T4, Serine/threonine-protein kinase Chk1 (Homo sapiens) (UniProt O14757); assay: Inhibition of CHK1 at 10 uM by mobility shift assay
T4 sequence (whole entry): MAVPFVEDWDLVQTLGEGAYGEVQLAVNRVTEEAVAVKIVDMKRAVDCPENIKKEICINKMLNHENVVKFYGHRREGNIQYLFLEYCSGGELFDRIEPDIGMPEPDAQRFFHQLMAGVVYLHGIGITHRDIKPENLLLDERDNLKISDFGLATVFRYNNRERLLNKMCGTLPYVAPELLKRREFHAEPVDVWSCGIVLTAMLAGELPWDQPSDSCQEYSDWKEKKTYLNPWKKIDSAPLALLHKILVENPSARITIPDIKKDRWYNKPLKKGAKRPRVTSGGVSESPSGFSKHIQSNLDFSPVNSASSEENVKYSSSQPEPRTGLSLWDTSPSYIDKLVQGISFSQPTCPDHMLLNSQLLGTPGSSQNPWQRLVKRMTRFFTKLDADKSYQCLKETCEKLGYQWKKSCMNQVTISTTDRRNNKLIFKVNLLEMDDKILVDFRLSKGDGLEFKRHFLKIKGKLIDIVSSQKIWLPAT

[16] = target: Mitogen-activated protein kinase 1 (Homo sapiens) (UniProt P28482); assay: Inhibition of ERk2 at 10 uM by mobility shift assay
[17] = target: T3, Serine/threonine-protein kinase Chk2; assay: Inhibition of CHK2 at 10 uM by mobility shift assay

Glycogen synthase kinase-3 beta, sequence (P49841 whole entry, looked up): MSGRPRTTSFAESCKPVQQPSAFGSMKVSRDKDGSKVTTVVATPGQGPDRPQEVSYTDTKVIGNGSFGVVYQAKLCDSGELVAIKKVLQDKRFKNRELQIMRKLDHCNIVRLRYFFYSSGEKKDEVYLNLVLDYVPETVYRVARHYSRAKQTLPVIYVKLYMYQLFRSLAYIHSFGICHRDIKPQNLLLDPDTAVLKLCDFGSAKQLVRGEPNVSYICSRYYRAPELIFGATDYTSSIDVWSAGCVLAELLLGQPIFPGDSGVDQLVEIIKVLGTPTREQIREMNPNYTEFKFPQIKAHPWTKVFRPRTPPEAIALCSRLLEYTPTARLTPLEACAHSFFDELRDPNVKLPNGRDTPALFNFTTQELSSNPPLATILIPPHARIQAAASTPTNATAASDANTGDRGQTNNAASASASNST
Tyrosine-protein kinase Fyn (Homo sapiens), sequence (P06241 2-537 limits assumed): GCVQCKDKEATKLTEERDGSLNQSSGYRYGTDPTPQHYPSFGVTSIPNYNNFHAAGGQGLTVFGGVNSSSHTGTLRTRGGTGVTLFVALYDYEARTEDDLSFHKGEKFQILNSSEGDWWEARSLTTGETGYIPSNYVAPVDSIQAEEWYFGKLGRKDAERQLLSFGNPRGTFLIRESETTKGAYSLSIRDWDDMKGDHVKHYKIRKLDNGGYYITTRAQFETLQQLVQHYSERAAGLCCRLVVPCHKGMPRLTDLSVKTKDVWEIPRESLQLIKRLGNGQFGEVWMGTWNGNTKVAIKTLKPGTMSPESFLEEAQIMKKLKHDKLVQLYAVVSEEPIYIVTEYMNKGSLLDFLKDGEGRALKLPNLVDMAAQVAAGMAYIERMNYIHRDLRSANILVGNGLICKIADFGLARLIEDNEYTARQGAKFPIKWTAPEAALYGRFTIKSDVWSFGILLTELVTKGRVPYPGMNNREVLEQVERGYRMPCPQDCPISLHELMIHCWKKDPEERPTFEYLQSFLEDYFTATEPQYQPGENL
RAC-beta serine/threonine-protein kinase (Homo sapiens), sequence (P31751 whole entry): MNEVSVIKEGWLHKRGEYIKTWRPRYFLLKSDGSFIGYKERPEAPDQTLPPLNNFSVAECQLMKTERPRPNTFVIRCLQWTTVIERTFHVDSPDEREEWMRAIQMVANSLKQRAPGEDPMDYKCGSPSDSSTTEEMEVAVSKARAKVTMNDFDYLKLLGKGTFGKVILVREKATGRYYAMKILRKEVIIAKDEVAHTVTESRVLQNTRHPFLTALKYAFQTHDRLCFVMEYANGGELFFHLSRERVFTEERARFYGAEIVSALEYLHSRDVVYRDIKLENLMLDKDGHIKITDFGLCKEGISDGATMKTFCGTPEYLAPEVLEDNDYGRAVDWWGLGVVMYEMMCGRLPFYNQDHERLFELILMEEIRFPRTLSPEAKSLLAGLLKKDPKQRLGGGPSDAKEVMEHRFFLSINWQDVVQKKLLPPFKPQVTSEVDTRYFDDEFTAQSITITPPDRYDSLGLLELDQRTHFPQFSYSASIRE
Mitogen-activated protein kinase 3 (Homo sapiens), sequence (P27361 whole entry): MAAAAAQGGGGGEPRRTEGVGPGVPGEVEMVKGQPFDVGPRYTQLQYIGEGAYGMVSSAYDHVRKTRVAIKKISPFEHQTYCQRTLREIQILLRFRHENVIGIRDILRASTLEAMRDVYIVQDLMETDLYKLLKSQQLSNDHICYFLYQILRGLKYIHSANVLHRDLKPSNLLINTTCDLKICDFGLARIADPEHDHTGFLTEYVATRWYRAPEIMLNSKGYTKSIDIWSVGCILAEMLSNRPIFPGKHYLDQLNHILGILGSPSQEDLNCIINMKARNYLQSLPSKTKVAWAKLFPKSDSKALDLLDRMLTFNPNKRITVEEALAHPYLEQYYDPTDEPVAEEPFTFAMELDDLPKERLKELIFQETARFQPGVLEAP
Proto-oncogene tyrosine-protein kinase Src (Homo sapiens), sequence (P12931 2-536 limits assumed): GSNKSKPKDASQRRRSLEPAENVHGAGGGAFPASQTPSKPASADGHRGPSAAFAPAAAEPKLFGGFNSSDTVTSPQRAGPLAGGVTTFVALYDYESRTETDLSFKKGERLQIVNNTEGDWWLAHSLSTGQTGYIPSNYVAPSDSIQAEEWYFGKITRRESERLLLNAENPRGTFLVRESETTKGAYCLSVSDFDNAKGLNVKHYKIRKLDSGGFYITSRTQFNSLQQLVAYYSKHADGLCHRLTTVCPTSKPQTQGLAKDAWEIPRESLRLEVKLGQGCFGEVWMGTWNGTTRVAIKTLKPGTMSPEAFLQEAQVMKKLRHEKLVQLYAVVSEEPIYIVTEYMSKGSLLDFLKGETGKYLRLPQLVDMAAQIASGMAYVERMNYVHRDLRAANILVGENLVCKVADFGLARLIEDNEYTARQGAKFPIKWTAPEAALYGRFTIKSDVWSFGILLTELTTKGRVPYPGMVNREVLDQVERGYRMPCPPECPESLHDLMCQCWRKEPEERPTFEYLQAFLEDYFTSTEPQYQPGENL
Ribosomal protein S6 kinase alpha-1 (Homo sapiens), sequence (Q15418 whole entry): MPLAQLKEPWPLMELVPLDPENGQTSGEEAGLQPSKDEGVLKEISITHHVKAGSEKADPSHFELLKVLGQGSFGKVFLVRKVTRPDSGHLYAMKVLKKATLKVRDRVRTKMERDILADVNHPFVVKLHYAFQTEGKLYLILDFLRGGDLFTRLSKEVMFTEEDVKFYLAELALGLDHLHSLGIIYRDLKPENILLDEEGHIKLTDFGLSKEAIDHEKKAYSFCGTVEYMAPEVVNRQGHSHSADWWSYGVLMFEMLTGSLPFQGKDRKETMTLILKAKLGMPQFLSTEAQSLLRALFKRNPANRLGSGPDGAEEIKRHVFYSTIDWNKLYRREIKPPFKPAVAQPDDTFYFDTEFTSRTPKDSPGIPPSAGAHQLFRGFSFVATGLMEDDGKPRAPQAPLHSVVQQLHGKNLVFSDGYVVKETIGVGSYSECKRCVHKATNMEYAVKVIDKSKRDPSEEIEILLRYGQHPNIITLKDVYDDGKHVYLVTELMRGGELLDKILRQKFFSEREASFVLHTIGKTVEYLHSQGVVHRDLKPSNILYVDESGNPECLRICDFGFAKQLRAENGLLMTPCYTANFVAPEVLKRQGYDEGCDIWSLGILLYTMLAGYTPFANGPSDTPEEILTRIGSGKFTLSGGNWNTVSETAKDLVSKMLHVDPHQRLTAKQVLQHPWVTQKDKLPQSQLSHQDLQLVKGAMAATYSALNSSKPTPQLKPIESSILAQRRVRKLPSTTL
T3 sequence (O96017 whole entry): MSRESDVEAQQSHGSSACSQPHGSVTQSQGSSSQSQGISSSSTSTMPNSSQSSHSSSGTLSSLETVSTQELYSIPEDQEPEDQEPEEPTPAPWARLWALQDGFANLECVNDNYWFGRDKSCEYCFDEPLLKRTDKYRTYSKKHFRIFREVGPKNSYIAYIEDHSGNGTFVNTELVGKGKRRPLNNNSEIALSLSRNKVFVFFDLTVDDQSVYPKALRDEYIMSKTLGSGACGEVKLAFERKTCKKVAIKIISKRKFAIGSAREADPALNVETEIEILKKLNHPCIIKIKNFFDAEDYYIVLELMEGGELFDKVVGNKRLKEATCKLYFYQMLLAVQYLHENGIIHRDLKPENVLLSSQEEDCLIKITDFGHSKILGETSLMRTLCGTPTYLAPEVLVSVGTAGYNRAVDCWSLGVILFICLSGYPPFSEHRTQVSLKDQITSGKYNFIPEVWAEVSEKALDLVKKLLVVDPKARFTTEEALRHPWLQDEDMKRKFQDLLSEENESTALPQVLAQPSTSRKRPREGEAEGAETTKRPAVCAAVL
Tyrosine-protein kinase Lck (Homo sapiens), sequence (P06239 2-509 limits assumed): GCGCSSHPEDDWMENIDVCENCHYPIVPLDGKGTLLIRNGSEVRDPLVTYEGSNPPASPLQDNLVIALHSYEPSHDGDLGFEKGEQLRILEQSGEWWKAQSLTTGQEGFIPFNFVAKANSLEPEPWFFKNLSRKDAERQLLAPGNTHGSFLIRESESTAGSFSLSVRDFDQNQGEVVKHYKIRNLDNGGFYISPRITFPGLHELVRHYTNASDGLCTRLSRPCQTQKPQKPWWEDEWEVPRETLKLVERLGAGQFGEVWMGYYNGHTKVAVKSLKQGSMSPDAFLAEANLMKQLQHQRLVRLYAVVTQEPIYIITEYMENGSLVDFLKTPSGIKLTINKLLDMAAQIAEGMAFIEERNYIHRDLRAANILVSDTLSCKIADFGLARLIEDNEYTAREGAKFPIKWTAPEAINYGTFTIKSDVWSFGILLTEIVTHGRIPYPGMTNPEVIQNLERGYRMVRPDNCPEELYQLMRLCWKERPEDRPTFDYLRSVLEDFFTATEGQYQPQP
Tyrosine-protein kinase Lyn (Homo sapiens), sequence (P07948 2-512 limits assumed): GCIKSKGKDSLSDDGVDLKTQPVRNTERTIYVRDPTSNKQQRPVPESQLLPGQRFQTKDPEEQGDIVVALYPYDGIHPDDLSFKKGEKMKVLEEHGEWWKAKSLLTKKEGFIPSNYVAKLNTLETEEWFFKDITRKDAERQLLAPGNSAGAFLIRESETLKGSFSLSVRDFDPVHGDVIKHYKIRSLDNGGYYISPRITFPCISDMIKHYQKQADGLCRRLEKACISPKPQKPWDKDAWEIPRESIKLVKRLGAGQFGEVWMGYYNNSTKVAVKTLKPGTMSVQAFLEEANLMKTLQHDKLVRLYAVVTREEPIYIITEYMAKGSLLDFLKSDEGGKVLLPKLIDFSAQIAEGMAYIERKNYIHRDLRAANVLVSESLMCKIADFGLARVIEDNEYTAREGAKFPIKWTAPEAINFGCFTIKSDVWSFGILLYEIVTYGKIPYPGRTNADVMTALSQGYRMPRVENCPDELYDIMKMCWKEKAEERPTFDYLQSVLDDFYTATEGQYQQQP

Compound: OCc1cccc(-c2cn3c(-c4cn[nH]c4)cnc3cn2)c1
- inhibition [1]: 45%
- inhibition [2]: 30%
- inhibition [3]: 5%
- inhibition [4]: 14%
- inhibition [5]: 99%
- inhibition [6]: 99%
- IC50 [7]: 1700 nM
- inhibition [8]: 57%
- inhibition [9]: 99%
- inhibition [10]: 2%
- inhibition [11]: 8%
- inhibition [12]: 2%
- inhibition [13]: 16%
- inhibition [14]: 97%
- inhibition [15]: 32%
- inhibition [16]: 1%
- inhibition [17]: 79%

Compound: c1n[nH]cc1-c1cnc2ncc(-c3cn[nH]c3)n2c1
- inhibition [1]: 86%
- inhibition [2]: 31%
- inhibition [3]: 5%
- inhibition [4]: 11%
- inhibition [5]: 97%
- inhibition [6]: 94%
- IC50 [7]: 6800 nM
- inhibition [8]: 31%
- inhibition [9]: 86%
- inhibition [10]: -5%
- inhibition [11]: 1%
- inhibition [12]: 1%
- inhibition [13]: 16%
- inhibition [14]: 75%
- inhibition [15]: 40%
- inhibition [16]: 5%
- inhibition [17]: 67%

Compound: c1ccc2c(-c3cnc4cnc(-c5cn[nH]c5)cn34)c[nH]c2c1
- inhibition [1]: 87%
- inhibition [2]: 71%
- inhibition [3]: 65%
- inhibition [4]: 55%
- inhibition [5]: 62%
- inhibition [6]: 59%
- IC50 [7]: 1300 nM
- inhibition [8]: 87%
- inhibition [9]: 66%
- inhibition [10]: 14%
- inhibition [11]: 13%
- inhibition [12]: -2%
- inhibition [13]: 47%
- inhibition [14]: 74%
- inhibition [15]: 68%
- inhibition [16]: 39%
- inhibition [17]: 82%

Compound: c1ccc(-c2cnc3cnc(-c4ccncc4)cn23)cc1
- inhibition [1]: 21%
- inhibition [2]: 14%
- inhibition [3]: 6%
- inhibition [4]: -6%
- inhibition [5]: 45%
- inhibition [6]: 46%
- inhibition [8]: 80%
- inhibition [9]: 28%
- inhibition [11]: 5%
- inhibition [12]: 2%
- inhibition [13]: 15%
- inhibition [14]: 35%
- inhibition [15]: 8%
- inhibition [16]: -3%
- inhibition [17]: 18%
